Test results: patent publication US12653901B2, “Anti-EDB antibodies and antibody-drug conjugates” (Pfizer Inc., priority 2016, dated 2026)
Entries after “also recorded” stand apart in the source; their conditions may differ. Like-named read-outs stand apart in the source and are kept apart here. Where a SMILES comes first, the peptide text is derived from it. [ ]: non-standard residue; d: D form. The star is where a group is joined. Dolaproine = CO[C@@H]([C@@H]1CCCN1)[C@@H](C)C(=O)O; Dil = CC[C@H](C)[C@H](NC)[C@@H](CC(=O)O)OC; Doe = c1ccc(C[C@H](N*)c2nccs2)cc1; Aib = CC(C)(N)C(=O)O

What was measured:
[1] = tested on: WI38-VA13 cells; test: In vitro cytotoxicity, WI38-VA13; assay type: cell-based, human; conditions: for IC50: Homo sapiens
Procedure: (§1) Proliferating WI38-VA13 or HT29 cells were harvested from culture flasks with non-enzymatic cell dissociation buffer and cultured overnight in 96-well plates (Corning) at 1000 cells/well in a humidified chamber (37° C., 5% CO2). The next day, cells were treated with EDB ADCs or isotype control non-EDB-binding ADCs by adding 50 μl of 3× stocks in duplicate at 10 concentrations. In some experiments, cells were plated at 1500 cells/well and treated the same day. Cells were then incubated with EDB ADCs or isotype control non-EDB-binding ADCs for four days. On harvest day, 50 μl of Cell Titer Glo (Promega) was added to the cells and incubated 0.5 hours at room temperature. Luminescence was measured on a Victor plate reader (Perkin Elmer, Waltham, MA). Relative cell viability was determined as a percentage of untreated control wells. IC50 values were calculated using four-parameter logistic model #203 with XLfit v4.2 (IDBS).

[2] = tested on: HT29 cells; test: In vitro cytotoxicity, HT29; assay type: cell-based, human; conditions: for IC50: Homo sapiens; for Avg IC50: HT29 (EDB+ FN negative), four days, ng/ml of antibody
Procedure: as §1

[3] = tested on: PDX-NSX-11122; test: In vivo efficacy, PDX-NSX-11122 NSCLC PDX; design: species or system mouse
From the text: (§2) To generate PDX models, tumors were collected from donor animals and tumor fragments approximately 3×3 mm were implanted subcutaneously into the flank of female athymic nude mice (for PDX-NSX-11122 model) or NOD SCID mice (for PDX-PAX-13565 and PDX-PAX-12534 models) by using a 10 gage trocar. When average tumor volume reached approximately 160 to 260 mm^3 the mice were randomized into treatment groups, with 7-10 mice in each group. ADCs or vehicle (PBS) dosing regime and administration route as well as tumor measurement procedures are the same as described above for CLX models. […] Tumor growth inhibition is plotted as an average of tumor size±SEM.

[4] = tested on: H-1975; test: In vivo efficacy, H-1975 NSCLC CLX; design: species or system mouse; conditions: intravenous, once every 4 days, doses as in value
From the text: (§3) To generate CLX models, 8×10^6 to 10×10^6 cells of H-1975, HT29, or Ramos tumor lines were implanted into female athymic nude mice subcutaneously. Ramos and H-1975 cells for inoculation were suspended in 50% and 100% […]® (BD Biosciences, biological call culture substrate), respectively. For the Ramos model, the animals received whole body irradiation (4 Gy) before cell inoculation to facilitate the establishment of tumors. When the average tumor volume reached approximately 160 to 320 mm^3, the animals were randomized into treatment groups, with 8-10 mice in each group. ADCs or vehicle (PBS) were administered intravenously on day 0 and then the animals were dosed once every 4 days for 4 to 8 doses. Tumors were measured once or twice weekly and tumor volume was calculated as volume (mm^3)[…](width×width×length)/2.

[5] = tested on: HT29; test: In vivo efficacy, HT29 colon CLX; design: species or system mouse; conditions: 3 mg/kg
From the text: as §3

[6] = tested on: PDX-PAX-13565; test: In vivo efficacy, PDX-PAX-13565 pancreatic PDX; design: species or system mouse; conditions: 0.3, 1 and 3 mg/kg
From the text: as §2

[7] = tested on: PDX-PAX-12534; test: In vivo efficacy, PDX-PAX-12534 pancreatic PDX; design: species or system mouse; conditions: 0.3, 1 and 3 mg/kg
From the text: as §2

[8] = tested on: Ramos; test: In vivo efficacy, Ramos lymphoma CLX; design: species or system mouse; conditions: 1 and 3 mg/kg
From the text: as §3

[9] = tested on: EMT6 syngeneic tumors; test: Immune response in treated EMT6 syngeneic tumors; assay type: in vivo, mouse
[10] = biological target: recombinant cynomolgus monkey 7-EDB-89; test: SPR binding kinetics to cynomolgus monkey 7-EDB-89
recombinant cynomolgus monkey 7-EDB-89, sequence (as listed by the source): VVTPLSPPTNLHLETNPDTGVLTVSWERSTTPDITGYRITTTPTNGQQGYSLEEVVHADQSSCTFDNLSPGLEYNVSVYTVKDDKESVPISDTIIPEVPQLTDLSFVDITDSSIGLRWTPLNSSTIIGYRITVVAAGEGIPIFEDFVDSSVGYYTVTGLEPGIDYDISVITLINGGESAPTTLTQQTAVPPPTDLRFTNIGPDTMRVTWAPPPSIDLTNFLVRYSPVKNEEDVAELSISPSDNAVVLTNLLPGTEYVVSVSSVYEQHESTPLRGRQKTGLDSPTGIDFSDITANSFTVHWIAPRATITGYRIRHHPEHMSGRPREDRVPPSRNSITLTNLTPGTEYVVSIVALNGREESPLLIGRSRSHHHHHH
Procedure: Binding is detected by surface SPR of laser light refracting from the surface. Analysis of the signal kinetics on-rate (ka) and off-rate (kd), allows the discrimination between non-specific and specific interactions.
The running and sample buffer used was HBS-EP+ buffer (0.01M HEPES, 0.15M NaCl, 3 mM EDTA, and 0.05% v/v surfactant P20 pH7.4). […] All SPR assays were performed at 25° C. with a data collection rate of 1 Hz using a BIACORE® (Cytiva; surface plasmon resonance (SPR) system) T200 instrument (GE Healthcare). The resulting sensorgrams were double referenced (Myszka, D. G., J. Mol. Recognit., 12:279-284, 1999) using both a control surface and buffer injections. The rate constants were determined by fitting the data to a 1:1 Langmuir model with BIACORE® (Cytiva; surface plasmon resonance (SPR) system) T200 evaluation software v2.0 and the equation KD=kd/ka. Each experiment was run in duplicate and the average KD was determined.

[11] = WI-38 VA13, unconjugated payload, WI38-VA13, read-out: Avg IC50
[12] = HT-29, unconjugated payload, HT29, read-out: Avg IC50

Compound: CC[C@H](C)[C@@H]([C@@H](CC(=O)N1CCC[C@H]1[C@H](OC)[C@@H](C)C(=O)N[C@@H](Cc1ccccc1)c1nccs1)OC)N(C)C(=O)[C@@H](NC(=O)C(C)(C)N)C(C)C [Payload-0101] (H-[Aib]V[Dil][Dolaproine]-Doe)
- IC50 ([1]; WI-38 VA13, read-out: Avg IC50): 0.392 nM
- IC50 ([2]; HT-29, read-out: Avg IC50): 0.09 nM

Compound: Cc1c[nH]c2c1[C@@]13C[C@@H]1CN(C(=O)C14CC5(C(=O)N6C[C@H]7C[C@@]78C6=CC(=O)c6[nH]cc(C)c68)CC15C4)C3=CC2=O (stereo partly drawn) [Payload-0326]
- IC50 ([1]; WI-38 VA13, read-out: Avg IC50): < 0.001 nM
- IC50 ([2]; HT-29, read-out: Avg IC50): 0.049 nM

Compound: CC[C@H](C)[C@@H]([C@@H](CC(=O)N1CCC[C@H]1[C@H](OC)[C@@H](C)C(=O)N[C@@H](Cc1ccc(N)cc1)c1nccs1)OC)N(C)C(=O)[C@@H](NC(=O)C(C)(C)N(C)C)C(C)C [Payload-1569]
- IC50 [1, 11]: 0.269 nM
- IC50 [2, 12]: 0.074 nM

Compound: CC[C@H](C)[C@@H]([C@@H](CC(=O)N1CCC[C@H]1[C@H](OC)[C@@H](C)C(=O)N[C@@H](Cc1ccc(CS)cc1)c1nccs1)OC)N(C)C(=O)[C@@H](NC(=O)C(C)(C)N(C)C)C(C)C [Payload-4574]
- IC50 ([1]; WI-38 VA13, read-out: Avg IC50): 3.54 nM
- IC50 ([2]; HT-29, read-out: Avg IC50): 3.65 nM

Compound: CC[C@H](C)[C@@H]([C@@H](CC(=O)N1CCC[C@H]1[C@H](OC)[C@@H](C)C(=O)N[C@@H](Cc1ccc(N)cc1)c1nccs1)OC)N(C)C(=O)[C@@H](NC(=O)[C@]1(C)CCCN1C)C(C)C [Payload-9411]
- IC50 [1, 11]: 0.519 nM
- IC50 [2, 12]: 0.197 nM

Compound: COc1cc2cc(c1Cl)N(C)C(=O)C[C@H](OC(=O)[C@H](C)N(C)C(=O)CCS)[C@]1(C)O[C@H]1[C@H](C)[C@@H]1C[C@@](O)(NC(=O)O1)[C@H](OC)/C=C/C=C(\C)C2 [Payload-DM1, mertansine, reference compound]
- IC50 ([1]; WI-38 VA13, read-out: Avg IC50): 3.06 nM
- IC50 ([2]; HT-29, read-out: Avg IC50): 2.63 nM

Compound: ADC1: EDB-L19 antibody conventionally conjugated via cysteine residues to auristatin 0101 with vc linker
- Avg IC50 [2]: 15,346 ng/ml
- anti-tumor activity ([3]; 1 mg/kg): delayed tumor growth
- anti-tumor activity ([3]; 3 mg/kg): complete regressions
- anti-tumor activity ([3]; intravenous, once every 4 days, doses as in value, listed as EDB-L19-vc-0101): tumor regression in a dose dependent manner at 3 mg/kg and 1.5 mg/kg; also recorded: greater efficacy as compared to isotype negative control ADCs and ADCs that were generated using a disulfide linker
- anti-tumor activity ([4]; listed as EDB-L19-vc-0101): tumor regression in a dose dependent manner at 3 mg/kg, and at as low as 1.5 mg/kg; also recorded: tumor regression at the highest doses evaluated
- anti-tumor activity [5]: tumor regression at the 3 mg/kg dose over time
- anti-tumor efficacy [6]: tumor regression in a dose dependent manner
- anti-tumor efficacy [7]: tumor regression in a dose dependent manner
- anti-tumor activity [8]: tumor regression at the 3 mg/kg dose in a dose dependent manner
- expression of PDL1 ([9]; treated tumors): increased expression of PDL1
- infiltration of CD3+ T cells ([9]; treated tumors vs. vehicle controls): Increased infiltration of CD3+ T cells

Compound: ADC5: EDB-L19 antibody conjugated to DM1 with disulfide (diS) linker
- Avg IC50 ([1]; WI38-VA13 (EDB+ FN positive), four days, ng/ml of antibody): 0.268 µg/mL
- Avg IC50 [2]: 237 ng/mL

Compound: ADC10: EDB-L19 antibody conjugated to auristatin 1569 with vc linker
- Avg IC50 [2]: 5,702 ng/ml
- anti-tumor activity [4]: tumor regression in a dose dependent manner

Compound: Ab1: L19 human monoclonal IgG1 antibody binding EDB; HC SEQ ID NO: 8, LC SEQ ID NO: 15
- Kd [10]: 188 nM
- ka [10]: 560000 M⁻¹ s⁻¹
- kd [10]: 0.105 s⁻¹
